The text below walks through data of patent publication US6835735B2, “4-(phenylamino)-[1,4]dioxano[2,3-g]quinazoline derivatives and process for preparing the same” (Korea Institute of Science and Technology, priority 2001, dated 2004).

For data set [1] the following is noted: background statement; cited from earlier work.
Data set [2] can be described thus: Measurement of the solubility of compounds in water (HPLC calibration curve). The following applies: supersaturated in 1 ml of water, centrifuged, supernatant by HPLC; for solubility thermodynamic: read-out: Solubility (mg/10 ml of water). Format: physicochemical. On the procedure: That is, 1 mg of each of the above compounds was completely dissolved in 1 ml of DMSO, which was then subjected to HPLC employing C18 resin, and the peak area of chromatogram was calculated. And then, 1 mg of each of the same compound was dissolved in 10 ml of DMSO, which was then subjected to the same HPLC as the above to obtain a chromatogram, and the peak area was calculated therefrom. A solubility calibration curve was prepared by employing the above two data, and a linear function was deduced from that to complete a calibration curve (X axis: area, Y axis: logarithm value of concentration).
Each of the same compounds was supersaturated in 1 ml of water, which was then centrifuged at 14,000 rpm for 1 min. The precipitate was separated from the supernatant which was then subjected to the same HPLC as the above to obtain a chromatogram, and the peak area was calculated therefrom. The obtained value was substituted to the above calibration curve to measure the solubility by mg/10 ml of water (see: Table 1).

The subject of another data set is A431 cancer cell. Briefly: Inhibition of cancer cell growth (sulforhodamine B). Format: cell-based. The following applies: for GI50: Homo sapiens, A-431, 48 h. As to the method: A431 cancer cell was cultivated at 37° C. under an environment of 5% (v/v) CO2 employing RPMI 1640 medium containing 10% (v/v) fetal calf serum. […] The above cells was grown again for 2 days, and then, fixed with formalin solution (Sigma Chem. Co., U.S.A.) and washed with water. After that, the cells was dried in the atmosphere, stained with 0.1% (v/v) sulforhodamine B solution (Sigma Chem. Co., U.S.A.) for 30 min and wash with 1% (v/v) acetic acid aqueous solution. Then, dye attached to cells was extracted with 0.1M Tris-HCl (pH 8.0) and the absorbances of the remaining culture were measured at 520 nm by the aid of microplate reader. And then, the concentration of the compound by which cell growth is 50% inhibited was represented as GI50(s: Table 3).

The target in data set [3] is T1, purified human EGFR kinase (Homo sapiens, UniProt P00533).
T1 construct: purchased Promega
Put plainly: Inhibition of EGFR tyrosine kinase (P32-ATP, biotin-conjugated substrate). The following applies: purified human EGFR kinase, 50 μM ATP, 30° C., 10 min. Format: biochemical. On the procedure: The test was accomplished in a 20 μl reaction volume using 0.1 unit per reaction of purified human EGFR kinase (Promega, U.S.A.) and 50 μM biotin-conjugated substrate for tyrosine kinase (Promega, U.S.A.) and, 50 μM P^32-γ-ATP (0.2 μCi) and 20 mM Tris-HCl (pH 7.5) were employed as an ATP and a reaction solution, respectively. The test was carried out at 30° C. for 10 min, and terminated by the addition of 10 μl of 30% phosphate solution. The half of the reaction product was spotted onto avidin-layered PVDF membrane, which was then washed with 20 mM Tris-HCl (pH 8.0) and 0.2N NaCl aqueous solution for more than 2 hours.

Setting [4] is: A431 cells, grown 2 days with compound, SRB staining.

Each structure is given as a SMILES string. pIC50: −log10 of the molar value. In brackets after ≈: the same amount, converted by molar mass. Structures can show the parent of a compound that is named as a salt.

T1 sequence (P00533 25-1210): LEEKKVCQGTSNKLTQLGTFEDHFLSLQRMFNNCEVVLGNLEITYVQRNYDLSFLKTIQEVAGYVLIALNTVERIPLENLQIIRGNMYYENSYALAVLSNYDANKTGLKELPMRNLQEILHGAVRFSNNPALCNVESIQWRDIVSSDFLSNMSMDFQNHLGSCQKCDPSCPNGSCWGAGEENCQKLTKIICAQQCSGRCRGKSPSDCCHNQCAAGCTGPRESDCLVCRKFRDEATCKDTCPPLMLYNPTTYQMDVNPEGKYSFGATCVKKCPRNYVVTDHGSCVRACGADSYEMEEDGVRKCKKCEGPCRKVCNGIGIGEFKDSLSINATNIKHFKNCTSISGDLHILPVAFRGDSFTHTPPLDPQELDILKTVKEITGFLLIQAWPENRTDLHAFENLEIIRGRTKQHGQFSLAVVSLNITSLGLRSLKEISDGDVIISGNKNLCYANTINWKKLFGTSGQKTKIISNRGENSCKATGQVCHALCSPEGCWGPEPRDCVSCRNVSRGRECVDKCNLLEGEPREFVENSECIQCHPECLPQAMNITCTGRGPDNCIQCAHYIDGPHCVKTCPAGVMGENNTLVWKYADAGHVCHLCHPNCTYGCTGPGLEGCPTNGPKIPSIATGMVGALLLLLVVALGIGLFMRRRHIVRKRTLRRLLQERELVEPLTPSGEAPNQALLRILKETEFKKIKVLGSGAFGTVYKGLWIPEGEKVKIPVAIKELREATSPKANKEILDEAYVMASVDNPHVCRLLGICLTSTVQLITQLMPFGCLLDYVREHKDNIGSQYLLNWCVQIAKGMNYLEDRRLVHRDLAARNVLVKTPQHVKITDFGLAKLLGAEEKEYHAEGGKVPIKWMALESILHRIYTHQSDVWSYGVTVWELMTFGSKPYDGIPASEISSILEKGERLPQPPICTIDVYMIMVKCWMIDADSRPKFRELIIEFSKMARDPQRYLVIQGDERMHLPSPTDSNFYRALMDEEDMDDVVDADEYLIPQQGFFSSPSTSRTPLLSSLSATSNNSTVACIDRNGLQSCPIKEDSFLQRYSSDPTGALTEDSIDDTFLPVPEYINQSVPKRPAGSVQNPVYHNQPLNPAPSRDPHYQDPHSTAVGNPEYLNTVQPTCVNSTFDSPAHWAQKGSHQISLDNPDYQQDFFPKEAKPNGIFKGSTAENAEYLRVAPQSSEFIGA

On to `COc1cc2ncnc(Nc3ccc(F)c(Cl)c3)c2cc1OCCCN1CCOCC1` [ZD 1839], for which, in data set [1], the “solubility in water (in words)” value is “does not have a high solubility”.
On to `COc1cc2ncnc(Nc3cccc(Br)c3)c2cc1OC` [DP153035, reference compound], for which, in data set [2], the solubility thermodynamic came to 20 µg/mL (≈ 55.5 µM). Further, the GI50 (usually the concentration that inhibits growth by half) with A431 cancer cell (setting [4]) was 0.99 µg/mL (≈ 2.75 µM). In addition, the “solubility in water (in words)” value in data set [1] is “insolubility in water”.
With `COCC1COc2cc3ncnc(Nc4cccc(F)c4)c3cc2O1` (stereo not drawn) [Example 8, (3-fluorophenyl)-(7-methoxymethyl-[1,4]-dioxano[2,3-g]quinazolin-4-yl)-amine], the melting point (in general, the temperature, or range, at which the solid turns liquid) lay within 257 to 260 °C. In addition, the solubility thermodynamic in data set [2] is 1040 µg/mL (≈ 3050 µM). Besides, the pIC50 (usually −log10 of the IC50, conventionally taken in molar units) in data set [3] was under 6.53. In the data set on A431 cancer cell (setting [4]), the GI50 came to 1.16 µg/mL (≈ 3.4 µM).
For `OCCN(CCO)CC1COc2cc3ncnc(Nc4cccc(Br)c4)c3cc2O1` (stereo not drawn) [Example 33, N-[4-(3-bromophenylamine)-[1,4]dioxano[2,3-g]quinazolin-7-ylmethyl]-N-(2-hydroxyethyl)]-2-ethanolamine hydrochloride], the “Solubility (mg/10 ml of water)” value in data set [2] was >>1,000 mg/10 ml of water. The negative logarithm of the IC50 (pIC50) in data set [3] was 7.35. Besides, the “inhibitory effect of cancer cell growth compared with standard material DP153035” value with A431 cancer cell (A431, comparison drawn from Table 3) was “better inhibitory effect of cancer cell growth than the standard material”. In addition, the “A431 GI50” value with A431 cancer cell (A431 cells, grown 2 days with compound, SRB staining, hydrochloride) was determined as 0.67 µg/mL.
